Entries after “also recorded” stand apart in the source; their conditions may differ.
How the values were obtained:
Cells [1] = test: MTT reduction assay (cell survival and toxicity); type: cell-based; conditions: 1, 10, 50, 100 μM for 48 to 66 hours, compared to vehicle
Description: Cell Survival and Toxicity Assay. The MTT (3-(4,5-dimethylthiazol-2-yl)-2,5-diphenyltetrazolium bromide) assay, which is widely used to measure cell proliferation and to screen for anticancer drugs, was used for assessing cell viability. Cells were treated with a range of ABAD compounds at 1, 10, 50, and 100 μM for 48 hours and then subjected to MTT reduction assay following the manufacture's instruction.
(§1) Effect of ABAD Inhibitor on Cell Survival and Toxicity. The effect of ABAD inhibitors on cell viability and toxicity was assessed using MTT reduction assay and trypan blue exclusion, which are widely used to assess cell survival and toxicity and to screen for drugs toxicity. Cells were treated with a range of concentrations of ABAD compound (4 and 8) at 1, 10, 50, 100 μM for 48 to 66 hours.

Cells [2] = test: Trypan blue dye exclusion (cell viability and toxicity); type: cell-based; conditions: 1, 10, 50, 100 μM for 48 to 66 hours, compared to vehicle
Description: The trypan blue dye exclusion is commonly used for measuring cell viability and toxicity. 48-66 hours after treatment of ABAD compounds, the trypan blue exclusion experiments were performed. In brief, cells plated in 96-well plates were washed with the balanced salt solution (Hanks-Balanced Salts/HESS) once, then replaced with HBSS including trypan blue solution to the final concentration of 0.2% (Sigma-Aldrich, St. Louis, Mo.), and mixed thoroughly. After standing at room temperature for 5 minutes, the cells were washed with HBSS again and then maintained in the well with HBSS. Both the stained and unstained cells in each well were counted under a microscope (Nikon E400). The calculated percentage of unstained cells represented the percentage of viable cells. Cell viability(%)=total viable cells (unstained)/total cells (stained and unstained)×100.
as §1

mAPP mice [3] = test: Morris water maze learning and memory in AD transgenic mice; type: in vivo; conditions: for learning memory: i.p. injection; for swim strategy used to locate the hidden platform: representative swim paths, mAPP mice; for latency to find the hidden platform: treated AD mice compared to untreated AD mice; for number of crossings at the target location / percent of time spent in the target quadrant: treated mAPP mice vs untreated mAPP mice, probe trial
Description: Wild-type mice (Non Tg) were also administered Compound 8 (n=5) and vehicle (n=5). Each mouse was given four 60-second trials per day for six consecutive days to find the hidden platform in a Morris water maze.
Wild-type mice were also administered Compound 8 […]. Each mouse was given four 60-second trials per day for seven consecutive days to find the hidden platform in a Morris water maze.
Each mouse was given four 60-second trials per day for six consecutive days to find the hidden platform in a Morris water maze.
In addition, the effect of Compounds 4 and 8 on learning and memory of Alzheimer's Disease (AD) transgenic mice was evaluated. Six month and 9-14 month-old transgenic mice overexpressing a mutated form of the human amyloid precursor protein (mAPP mice) and their wild-type (non Tg) littermates were used in this study. […] Moreover, performance in a spatial MWM trial was evaluated using crossings over the platform area (an index of memory precision; Morris (1984) J. Neurosci. Methods 11:47-60), percent of time spent in target quadrant (an index of memory retrieval; Morris (1984) J. Neurosci. Methods 11:47-60), and swim paths.

mAPP mice [4] = test: Hippocampal long-term potentiation (LTP) in slices from treated mice; type: in vivo
Description: LTP was induced by theta-burst stimulation (TBS) 20 minutes after baseline recordings in hippocampal slices from Non-Tg mice treated with vehicle (n=9 slices from 3 mice), Non-Tg mice treated with Compound 8 (n=9 slices from 3 mice), mAPP mice treated with vehicle (n=8 slices from 3 mice), and mAPP mice treated with Compound 8 (n=8 slices from 3 mice). LTP is expressed as percentage potentiation of baseline (100%) (FIG. 5A).
LTP is expressed as percentage potentiation of baseline (100%) (FIG. 7A).
Synaptic failure in AD is largely reflected by impaired long-term synaptic plasticity in terms of long-term potentiation (LTP). […] Representative field excitatory post-synaptic potentials (fEPSP) waveforms are provided in FIGS. 5A and 7A and the residual potentiation from fEPSP slopes occurring over the last 5 minutes of LTP recording are provided in FIGS. 5B and 7B.

COc1ccc2nc(N[C@@H](c3ccc(O)cc3)P(=O)(OC)OC)sc2c1 (racemic) [Compound 8, Dimethyl ((4-hydroxyphenyl)((6-methoxybenzo[d]thiazol-2-yl)amino)methyl)phosphonate]
MTT reduction (Cells [1]): did not exhibit decreased MTT reduction | increased percentage of trypan blue-positive cells (Cells [2]): did not exhibit | learning memory (mAPP mice [3]; 6-months old mAPP mice): improves learning memory | learning memory (mAPP mice [3]; 9-14-months old mAPP mice): improves learning memory | swim strategy used to locate the hidden platform (mAPP mice [3]): improvement in the swim strategy | latency to find the hidden platform (mAPP mice [3]): significantly shorter latency | number of crossings at the target location (mAPP mice [3]): significantly more | percent of time spent in the target quadrant (mAPP mice [3]): significantly more | hippocampal long-term potentiation (LTP) (mAPP mice [4]): impairments were diminished; also recorded: protective effects

COC(=O)c1cc([C@H](Nc2nc3ccc(OC)cc3s2)P(=O)(OC)OC)ccc1O [Compound 4, Methyl 5-((dimethoxyphosphoryl)((6-methoxybenzo[d]thiazol-2-yl)amino)methyl)-2-hydroxybenzoate]
MTT reduction (Cells [1]): did not exhibit decreased MTT reduction | increased percentage of trypan blue-positive cells (Cells [2]): did not exhibit | learning memory (mAPP mice [3]; 9-months old mAPP mice): improves learning memory | swim strategy used to locate the hidden platform (mAPP mice [3]): improvement in the swim strategy | latency to find the hidden platform (mAPP mice [3]): significantly shorter latency | number of crossings at the target location (mAPP mice [3]): significantly more | percent of time spent in the target quadrant (mAPP mice [3]): significantly more | hippocampal long-term potentiation (LTP) (mAPP mice [4]): impairments were diminished; also recorded: protective effects
